Assay results published in patent EP3153515A1, “COMPOUNDS FOR INHIBITING HEPATITIS C VIRUS, PHARMACEUTICAL COMPOSITIONS AND USES THEREOF” (priority 2014, dated 2015).
Where two headings read alike, the source gives them in different places.

Experiments:
Assay type in all cases: cell-based
HCV NS5A replicon GT-6a = test: HCV NS5A replicon anti-viral activity (EC50), GT-6a; conditions: Hepatitis C virus, genotype 1a / genotype 6a; GT-6a replicon; read-out: Inhibitory activity against various HCV-NS5A subtypes(EC50, GT-1a to GT-6a) GT-6a
Excerpt: (§1) The autonomous replication level of HCV in liver cells in vitro is very low, and the only animal that can be infected by HCV is chimpanzee, therefore there is no appropriate animal model currently available for preclinical pharmacodynamic study. Some researchers have transplanted human liver tissue infected with HCV in vitro into immune deficient mice to establish an in vivo mice model, but these mice are hard to raise and the model is unstable and short of normal immunologic reaction. Moreover, the model has significant difference with the pathogenic process of hepatitis C, therefore, it has not been used for animal model to assess the action of anti-HCV medicine yet. The progress of the development of anti-viral drugs for the treatment of HCV infection had been very slow because the pathogenic mechanism and life cycle of HCV were unclear before 1999 due to the lack of cell culture system for effective multiplication of HCV. But researchers managed to achieve a breakthrough in 1999 after numerous attempts. An effective cell culture model-replicon system in which HCV is capable of autonomous replication in transfected human hepatic carcinoma cell line Huh-7 had been established in that year on the basis of subgenomic HCV RNA built with genetic engineering.
(§2) The above-mentioned cell culture model-replicon system which has been widely accepted in the industry is used in this invention for ex vivo experiments and subsequent assessment of drugs based on the experiment results.
(§3) The therapeutic effect of the compounds of this invention on HCV infection can be preliminarily assessed through the following preclinical in vitro inhibitory action test and can be further confirmed in clinical trials. Other methods used in the invention are also quite familiar to professionals in this field with ordinary technical knowledge. Method for testing the anti-viral activity(EC50) in HCV NS5A replicon system: • The viral replication level in infected cells was determined by testing Renilla luciferase with the newly established dual-reporter gene replicon system. There was a good linear relation between the expression level of the reporter gene and the HCV RNA replication level and viral protein expression level. The anti-viral activity was determined for 3 replicates in 3 replicate cells at five(5) 1:2 diluted concentration gradients, with 1 to 2 positive controls. The EC50 of the compounds was calculated in the end.
(§4) The compounds of the invention, or their stereoisomers, tautomers, esterified or amidated prodrugs, or pharmaceutically acceptable salts and mixtures have been subjected to test to determined their therapeutic effects in the treatment of HCV infection. […] Moreover, the results of 6a-6ep(Ia), 6fa-6gq(Ib) and reference compounds Ref-1(BMS-790052), Ref-2(GS5885), Ref-3 in HCV-NS5 inhibition test reveal that the cyclopentanyl/hexamethyleneamino radical containing linear polypeptide compounds 6a-6ep, 6fa-6gq and reference compounds Ref-1, Ref-2, Ref-3 have good HCV inhibitory results. […] The replicons GT-1a, GT-lb, GT-2a, GT-3a, GT-4a, GT-5a and GT-6a used for the test are routine replicons commercially available in this field. Table 1: HCV NS5A replicon inhibitory activity test results of compounds (6a-6gq) of the invention

HCV NS5A replicon GT-3a = test: HCV NS5A replicon anti-viral activity (EC50), GT-3a; conditions: Hepatitis C virus, genotype 1a / genotype 3a / genotype 6a, read-out: Inhibitory activity against various HCV-NS5A subtypes(EC50, GT-1a to GT-6a) GT-3a
Excerpt: as §1, §2, §3, §4

HCV NS5A replicon GT-lb = test: HCV NS5A replicon anti-viral activity (EC50), GT-1b; conditions: Hepatitis C virus, genotype 1a / genotype 6a, read-out: Inhibitory activity against various HCV-NS5A subtypes(EC50, GT-1a to GT-6a) GT-lb
Excerpt: as §1, §2, §3, §4

HCV NS5A replicon GT-2a = test: HCV NS5A replicon anti-viral activity (EC50), GT-2a; conditions: Hepatitis C virus, genotype 1a / genotype 2a / genotype 6a; GT-2a replicon; read-out: Inhibitory activity against various HCV-NS5A subtypes(EC50, GT-1a to GT-6a) GT-2a
Excerpt: as §1, §2, §3, §4

HCV NS5A replicon GT-1a = test: HCV NS5A replicon anti-viral activity (EC50), dual-reporter Renilla luciferase, GT-1a; conditions: for EC50: Hepatitis C virus
Excerpt: as §1, §2, §3, §4

HCV NS5A replicon GT-4a = test: HCV NS5A replicon anti-viral activity (EC50), GT-4a; conditions: Hepatitis C virus, genotype 1a / genotype 4a / genotype 6a, read-out: Inhibitory activity against various HCV-NS5A subtypes(EC50, GT-1a to GT-6a) GT-4a
Excerpt: as §1, §2, §3, §4

HCV NS5A replicon GT-5a = test: HCV NS5A replicon anti-viral activity (EC50), GT-5a; conditions: Hepatitis C virus, genotype 1a / genotype 5a / genotype 6a, read-out: Inhibitory activity against various HCV-NS5A subtypes(EC50, GT-1a to GT-6a) GT-5a
Excerpt: as §1, §2, §3, §4

[1] = GT1A, GT-1a replicon, read-out: NS5A Inhibitory Activity (EC50 of GT-1a subtype inhibition)
[2] = genotype 1a / genotype 6a, read-out: Inhibitory activity against various HCV-NS5A subtypes(EC50, GT-1a to GT-6a) GT-1a

Row | Structure (SMILES) | EC50 (HCV NS5A replicon GT-6a) | EC50 (HCV NS5A replicon GT-3a) | EC50 (HCV NS5A replicon GT-lb) | EC50 (HCV NS5A replicon GT-2a) | EC50 (HCV NS5A replicon GT-1a; [1]) | EC50 (HCV NS5A replicon GT-1a; [2]) | EC50 (HCV NS5A replicon GT-4a) | EC50 (HCV NS5A replicon GT-5a) | inhibitory activity compared with Ref-1(BMS-790052), Ref-2(GS5885), Ref-3 and Ref-4 (in words) (HCV NS5A replicon GT-1a; comparison drawn from Table 2)
1 | COC(=O)N[C@H](C(=O)N1CC=C[C@H]1c1ncc(-c2ccc(-c3cc4sc(-c5cnc([C@@H]6CCCN6C(=O)[C@H](NC(=O)OC)c6ccccc6)[nH]5)cc4s3)cc2)[nH]1)C(C)C [6fd] | 55 pM | 26 pM | 5 pM | 7 pM | 1 to 999 pM | 20 pM | 5 pM | 13 pM | –
2 | COC(=O)N[C@H](C(=O)N1CC=C[C@H]1c1ncc(-c2ccc(-c3ccc(-c4c[nH]c([C@@H]5CCCN5C(=O)[C@@H](NC(=O)OC)C(C)C)n4)cc3)cc2)[nH]1)C(C)C [6ba] | 221 pM | 173 pM | 12 pM | 16 pM | 1 to 999 pM | 39 pM | 10 pM | 23 pM | –
3 | COC(=O)N[C@H](C(=O)N1CCC[C@H]1c1ncc(-c2ccc(-c3cc4sc(-c5cnc([C@@H]6C=CCN6C(=O)[C@H](NC(=O)OC)c6ccccc6)[nH]5)cc4s3)cc2)[nH]1)C(C)C [6fg] | 23 pM | 24 pM | 13 pM | 8 pM | 1 to 999 pM | 9 pM | 12 pM | 29 pM | significantly superior
4 | COC(=O)N[C@H](C(=O)N1CCCC[C@H]1c1nc(-c2ccc(-c3ccc(-c4c[nH]c([C@@H]5CCCN5C(=O)[C@@H](NC(=O)OC)C(C)C)n4)cc3)cc2)c[nH]1)C(C)C [6ab] | – | – | – | – | 1 to 999 pM | – | – | – | –
5 | COC(=O)N[C@H](C(=O)N1CCC[C@H]1c1nc(-c2ccc(-c3ccc(-c4cnc([C@@H]5CCCN5C(=O)[C@@H](NC(=O)OC)C(C)C)[nH]4)cc3)cc2)c[nH]1)C(C)C [Ref-1, BMS-790052, reference compound] | 118 pM | 218 pM | 21 pM | 29 pM | 1 to 999 pM | 52 pM | 11 pM | 36 pM | –
6 | COC(=O)N[C@H](C(=O)N1CC=C[C@H]1c1ncc(-c2ccc(-c3ccc(-c4cnc([C@@H]5CN(S(=O)(=O)C(C)C)CN5C(=O)[C@@H](NC(=O)OC)C(C)C)[nH]4)cc3)cc2)[nH]1)C(C)C [6dd] | – | – | – | – | 1 to 999 pM | – | – | – | –
7 | COC(=O)N[C@H](C(=O)N1CCCC[C@H]1c1nc(-c2ccc(-c3ccc(-c4c[nH]c([C@@H]5C[C@H](OC(=O)N6Cc7cc8c(cc7C6)OCO8)CN5C(=O)[C@@H](NC(=O)OC)C(C)C)n4)cc3)cc2)c[nH]1)C(C)C [6ac] | – | – | – | – | 1 to 999 pM | – | – | – | –
8 | COC(=O)N[C@@H](C(=O)N1CCC[C@H]1c1ncc(-c2ccc(-c3cc4sc(-c5cnc([C@@H]6CCCN6C(=O)[C@H](NC(=O)OC)c6ccccc6)[nH]5)cc4s3)cc2)[nH]1)c1ccccc1 [Ref-3, reference compound] | – | – | – | – | 1 to 999 pM | 51 pM | – | – | –
9 | COC(=O)NC(C(=O)N1CC=C[C@H]1c1ncc(-c2ccc(-c3ccc(-c4cnc([C@@H]5C=CCN5C(=O)C(NC(=O)OC)c5ccccc5)[nH]4)cc3)cc2)[nH]1)c1ccccc1 (stereo partly drawn) [6ca] | – | – | – | – | 1 to 999 pM | – | – | – | –
10 | COC(=O)N[C@H](C(=O)N1CC=C[C@H]1c1nc(-c2ccc(-c3ccc(-c4c[nH]c([C@@H]5CCCN5C(=O)C5(NC(=O)OC)CCCCC5)n4)cc3)cc2)c[nH]1)C(C)C [6bj] | – | – | – | – | 1 to 999 pM | – | – | – | –
11 | CC(C)[C@H](NC(=O)OC(C)(C)C)C(=O)N1CC=C[C@H]1c1nc(-c2ccc(-c3ccc(-c4cnc([C@@H]5C=CCN5C(=O)[C@@H](NC(=O)OC(C)(C)C)C(C)C)[nH]4)cc3)cc2)c[nH]1 [6be] | – | – | – | – | 1 to 999 pM | – | – | – | –
12 | COC(=O)N[C@H](C(=O)N1CCC[C@H]1c1nc2ccc(-c3ccc(-c4ccc5nc([C@@H]6C=CCN6C(=O)[C@H](NC(=O)OC)c6ccccc6)[nH]c5c4)c4c3CC3(CCCCC3)C4)cc2[nH]1)C(C)C [6ep] | – | – | – | – | 1000 to 49900 pM | – | – | – | –
